Assay [1] concerns 3T3 CELLS. Format: cell-based, Murine. The following applies: GRP 3 ng/ml alone, no antagonist; basal 207000 ± 4200. Here is the method:
(C) Inhibition of ^3 H-Thymidine incorporation by 3T3cells. SCLC cells were used 2 to 4 days after passage. Single cell suspensions were prepared by washing the cells (twice with PBS then pipetting them in PBS containing 0.2 g/liter glucose, 0.2 g/liter EDTA, and 14 mM lignocaine hydrochloride at 37° C. until the suspension appeared to be uniform (2-4 min). The cells were washed three times and resuspended in HITES without FCSB. Cultures were set up at 1.34×10^5 cells plated on day 0, all peptides added at same time in 1 ml. of RPMI-1640 medium plus HITES and 0.125% albumin. 48 hours later, 1 uc. of tritiated thymidine was added to each well and incubation continued for an additional 24 hours. Cells then were washed and deposited on glass filter paper and washed with ice cold 5% trichloro-acetic acid. Filter paper placed in vials containing scintillation fluid and counted for 1 minute. | 348,000 - 207,000 = 141,000 was taken as the stimulation

The test system of assay [2] is serum gastrin. Briefly: Serum gastrin inhibition in vivo after GRP stimulation. The conditions noted are these: rat, eight minutes after GRP 3 μg/100 g BW alone; control 16.7. Here is the method:
Bombesin analogs Peptides (5), (10) and (2) were tested in vivo on serum gastrin inhibition after GRP stimulation.

Where no end group is shown, it is not given here.

Turning to “GRP: gastrin releasing peptide, peptide amide containing 27 amino-acid with bombesin-like properties; agonist stimulus (VPLPAGGGTVLTKMYPRGNHWAVGHLM-NH2; UniProt P07492 24-50, looked up)”, the “DPM ± S.E.” value in assay [1] is 348000 ± 15300 DPM. In assay [2], this substance gave a serum gastrin level of 105 pg/mL.

Values taken from patent publication US5244883A, “Nonapeptide bombesin antagonists” (The Administrators of the Tulane Educational Fund, priority 1990, dated 1993).
